# What was measured:
# [1] = tested on: STAT3-dependent pLucTKS3 luciferase reporter; test: STAT3-dependent luciferase reporter assay in v-Src/NIH 3T3 fibroblasts; type: cell-based, murine; settings: 10 μM, 24-48 hr
# Text: DNA Binding and Transcription. The STAT3 reporter, pLucTKS3, driving expression of firefly luciferase has been previously described (Turkson, J. et al. Mol. Cell Biol., 1999, 19:7519-7528). The pLucTKS3 plasmid harbors seven copies of a sequence corresponding to the STAT3-specific binding site in the promoter of the human C-reactive protein gene (Zhang, D. et al. J. Biol. Chem., 1996, 271:9503-9509). The STAT3-independent plasmid, pRLSRE, contains two copies of the serum response element (SRE) from the c-fos promoter (Yamauchi, K. et al. J. Biol. Chem., 1993, 268:14597-14600), subcloned into renilla luciferase reporter, pRL-null (Promega Corporation, Madison, Wis.).
# Transfection and Generation of Stable Clones. […]
# Preparation of Cytosolic Extracts. […] Cells were resuspended in 0.4 ml of low-salt HEPES buffer (10 mM HEPES, pH 7.8, 10 mM KCl, 0.1 mM EGTA, 0.1 mM EDTA, 1 mM PMSF, and 1 mM DTT) for 15 min, lysed by the addition of 20 μl of 10% NP-40, and centrifuged (10,000×g, 30 sec, 4° C.) to obtain the cytosolic supernatant, which was used for luciferase assays (Promega Corporation) measured with a luminometer.
# [2] = tested on: JAK1; test: JAK kinase autophosphorylation assay on immunoprecipitates (JAK1); type: biochemical; settings: immunoprecipitates from MDA-MB-468 or v-Src/NIH 3T3 cells; AG490 100 μM, PD180970 2 μM
# Procedure: JAK Kinase Assays. A549, MDA-MB-468, and v-Src transformed NIH 3T3 cells were harvested, washed three times in PBS-V (10 mM sodium phosphate, pH 7.4, 137 mM NaCl, 1 mM sodium orthovanadate) then lysed for 30 min on ice in JAK kinase lysis buffer (25 mM Hepes, pH 7.4, 0.1% Triton-X-100, 0.5 mM DTT, 1 mM sodium orthovanadate, 1 mM PMSF, 10 μg/ml aprotinin, 10 μg/ml leupeptin). Samples were spun at high speed to clear, and 800-1000 μg of protein was immunoprecipitated per treatment condition with 50 ng of either JAK1 or JAK2 antibody (Santa Cruz Biotechnology) rocking overnight at 4° C. 25 μl of protein A/G PLUS agarose then was added and rocking continued for 1 hr at 4° C. Samples were spun to collect agarose pellet, and pellet washed twice in wash buffer (50 mM Hepes, pH 7.4, 0.1% Triton-X-100, 0.5 mM DTT, 150 mM NaCl) and once in phosphorylation buffer (50 mM Hepes, pH 7.4, 0.1% Triton-X-100, 0.5 mM DTI, 6.25 mM manganese chloride, 100 mM NaCl). Kinase reactions were performed at 30° C. for 15 min in a final volume of 100 μl of phosphorylation buffer. Samples were pretreated with DMSO control, JSI-124, and control compounds (AG490, 100 μM, and […], 2 μM) before addition of 20 μCi/sample y-[^32P]ATP. Reaction was halted using stop buffer (wash buffer plus 10 mM EDTA), samples spun to collect pellet, then pellet washed once with stop buffer and twice with wash buffer. Samples were then placed in 2×SDS-PAGE sample buffer, boiled at 100° C., and run on 8% SDS-PAGE gels to separate proteins. Autophosphorylation results were visualized by autoradiography.
# [3] = tested on: MDA-MB-468 tumors; test: Antitumor activity, MDA-MB-468 xenograft in nude mice; type: in vivo; settings: 1 mg/kg/day i.p.
# Text: Antitumor Activity in the Nude Mouse Tumor Xenograft Model. Nude mice and C57 BL-6 black mice (National Cancer Institute, Bethesda, Md.) were maintained in accordance with the Institutional Animal Care and Use Committee (IACUC) procedures and guidelines. v-Src- and oncogenic H-Ras-transformed NIH 3T3, A549, MDA-MB-468 and Calu-1 cells were harvested, resuspended in PBS and injected s.c. into the right and left flank (10×10^6 cells per flank) of 8 week old female nude mice as reported previously (Sun, J. et al. Cancer Res., 1999, 59:4919-4926). Similarly, murine B16-F10 Melanoma cells were injected s.c. into the right and left flank (10^6 cells per flank) of C57 black mice. When tumors reached about 150 mm^3, animals were randomized (five animals per group; two tumors per animal) and dosed i.p. with 0.2 ml once daily. Control animals received DMSO (20%) vehicle whereas treated animals were injected with JSI-124 (1 mg/kg/day) in 20% DMSO in water. The tumor volumes were determined by measuring the length (l) and the width (w) and calculating the volume (V=1w^2/2) as described previously (Sun, J. et al. Cancer Res., 1999, 59:4919-4926). Statistical significance between control and treated animals were evaluated by using Student's t-test. […] Percent surviving mice was determined by monitoring the death of mice until all mice died. […]
# [4] = personal communication; cited from earlier work
structure (smiles),measurement,setting,value
"CC(C)(O)/C=C/C(=O)[C@](C)(O)[C@H]1[C@H](O)C[C@@]2(C)[C@@H]3CC=C4[C@@H](C=C(O)C(=O)C4(C)C)[C@]3(C)C(=O)C[C@]12C [JSI-124, cucurbitacin I]",induction of STAT3-dependent pLucTKS3 luciferase reporter,[1],significantly suppresses
same,JAK1 kinase activity (autophosphorylation) in vitro,[2],not affected
same,inhibition of MDA-MB-468 tumor growth,[3],86%
same,edema at the subcutaneous site of injection (NCI Developmental Therapeutics Program),[4],edema was observed at the subcutaneous site of injection

# From patent publication US8691799B2, “Materials and methods for treatment of cancer and identification of anti-cancer compounds” (priority 2001, dated 2014)
